# Experiments:
# prostate = assay: in vivo panning of X7 library, prostate; set-up: species or system mice; settings: for % OF MOTIF AMONG ALL CLONES: PROSTATE; for prostate/brain homing ratio: PROSTATE section, prostate as compared to brain; for enrichment in homing to prostate as compared to brain: mouse, in vivo
# Experimental: (§1) Following various in vivo panning screens, hundreds of thousands to millions of phage expressing homing peptides were recovered from the respective organ or tissue. Generally, the phage collected from a round of in vivo panning were plated on agar, about 250 to 300 clones were selected, grown in 5 ml cultures, then pooled and readministered for a subsequent round of in vivo panning (“regular method”). However, in some experiments, 1000 clones were selected, grown in 2 ml cultures, then pooled and administered for a subsequent round of screening; or the entire agar plate was scraped and all of the phage were cultured together and administered for a subsequent round of screening. The peptide inserts of various isolated phage were determined such that, of the millions of phage that homed, only a small number of sequences were identified.
# The invention also provides prostate homing peptides such as SMSIARL (SEQ ID NO: 21) and VSFLEYR (SEQ ID NO: 22), which were identified by injection of an X7 (SEQ ID NO: 29) library into mice (Table 7). The peptides were isolated by the regular method.
# (§2) Organ samples were washed 3 times with ice cold DMEM-PI containing 1% bovine serum albumin (BSA), then directly incubated with 1 ml K91-kan bacteria for 1 hr. Ten ml NZY medium containing 0.2 μg/ml tetracycline (NZY/tet) was added to the bacterial culture, the mixture was incubated in a 37° C. shaker for 1 hr, then 200 μl aliquots were plated in agar plates containing 40 μg/ml tetracycline (tet/agar).
# (§3) Approximately 250 to 300 individual bacterial colonies containing phage recovered from the various organs or tissues were grown for 16 hr in 5 ml NZY/tet. In some experiments, approximately 1000 individual bacteria containing phage were picked and the phage were amplified in 2 ml of NZY/tet or the entire plate containing phage was scraped, pooled and grown in bulk and processed for injection. Where phage were cultured separately, the cultures were pooled and the phage were injected into mice or rats as described above for a second round of in vivo panning. In some experiments, a third or fourth round of panning was performed. Phage DNA was purified from individual bacterial colonies obtained and the DNA sequences encoding the peptides expressed by selected phage were determined (see Koivunen et al., supra, 1994b).
# gut = assay: in vivo panning of X7 library, gut; set-up: species or system mice; settings: for % OF MOTIF AMONG ALL CLONES: GUT, of 40 clones sequenced; for gut/brain enrichment ratio: GUT section, gut as compared to brain
# Experimental: as §1
# The invention also provides gut homing peptides such as YSGKWGK (SEQ ID NO: 9) and YSGKWGW (SEQ ID NO: 156), which were identified by injection of an X7 (SEQ ID NO: 29) library into mice (Tables 1 and 4) and differ only in the last amino acid position. The peptides were isolated by the regular method. The gut homing peptide YSGKWGK (SEQ ID NO: 9) was present in 22% of 40 clones sequenced and was enriched 30-fold in gut as compared to brain (Table 1). In addition, gut homing peptides such as QVRRVPE (SEQ ID NO: 155) and VRRGSPQ (SEQ ID NO: 164), which share a VRR motif, were identified, as were the peptides VRRGSPQ (SEQ ID NO: 164), GGRGSWE (SEQ ID NO: 167) and FRVRGSP (SEQ ID NO: 169), which share an RGS motif.
# as §2, §3
# skin = assay: in vivo homing of phage displaying peptides to skin; set-up: species or system mice
# Experimental: For in vivo panning of skin, two month old BALB/c nude mice were used to avoid contamination by hair. The mice were injected intravenously with phage as described above and, after perfusion through the heart, the skin was removed in large sections and placed on an ice cold plate with the hypodermis facing up. The skin was scraped with a scalpel to remove mostly hypodermis, which was then processed for phage recovery as described below.
# as §3
# in After two or three rounds of in vivo panning of mice injected with a cyclic CX3CX3CX3C (SEQ ID NO: 25) phage display library, the peptide sequence CVALCREACGEGC (SEQ ID NO: 3), which appeared repeatedly in skin, was identified (Table 1). To determine the specificity of skin homing of the sequence CVALCREACGEGC (SEQ ID NO: 3), phage displaying the peptide was amplified individually, diluted to the same input titer and administered to mice. Following administration, control kidney and brain organ were removed and the number of TU of phage in skin, kidney and brain was determined.
# Peptides that were identified more than one time during screening are indicated by an asterisk. For example, 14% of recovered CX3CX3CX3C (SEQ ID NO: 25) phage that homed to head skin had the sequence CVDVCCDGCPVCC (SEQ ID NO: 437). Phage having the sequence RVPLSGDVEH (SEQ ID NO: 438), LRVMSFTSGQ (SEQ ID NO: 439), or RFSVGSLFGS (SEQ ID NO: 440) each constituted 14% of recovered CX10C (SEQ ID NO: 30) phage that homed to head skin.
# lung = assay: in vivo homing of phage displaying peptides to lung; set-up: species or system mice; settings: for % OF MOTIF AMONG ALL CLONES: LUNG; for LUNG/BRAIN RATIO: LUNG section; for enriched in lung over unselected phage: individually amplified phage, FIG. 2; for enrichment in lung as compared to unselected phage: mouse, in vivo
# Experimental: For lung and pancreas, a mixture of phage libraries containing 10^10 TU was diluted in 200 μl DMEM and injected into the tail vein of anesthetized BALB/c mice (2 month old; Harlan Sprague Dawley; San Diego Calif.); AVERTIN (0.017 ml/g) was used as anesthetic (Pasqualini and Ruoslahti, supra, 1996). After 1-4 minutes, mice were snap frozen in liquid nitrogen or, after about 5 minutes of phage circulation, the mice were perfused through the heart with 5-10 ml of DMEM (SIGMA; St. Louis Mo.). To recover the phage, the organs from the perfused mice or partially thawed organs from snap frozen mice were collected and weighed, then were homogenized in 1 ml DMEM-PI (DMEM containing protease inhibitors (PI); phenylmethyl sulfonyl fluoride (PMSF; 1 mM), aprotinin (20 μg/ml), leupeptin (1 μg/ml)).
# as §2, §3
# After two or three rounds of in vivo panning of mice injected with a cyclic CX3CX3CX3C (SEQ ID NO: 25) or a cyclic CX6C (SEQ ID NO: 26) phage display library, four peptides that homed to lung were identified.
# To determine the specificity of lung homing of the individual peptides identified, phage displaying the peptides were amplified individually, diluted to the same input titer and administered to mice. Following administration, control kidney and brain organ was removed and the number of TU of phage in lung, kidney and brain was determined. The results shown in FIG. 2 reveal that 10× and 35× more phage having the peptide sequence CGFECVRQCPERC (SEQ ID NO: 1; GFE-1) bound to lung than to kidney and brain, respectively. […] The lung homing peptides CGFECVRQCPERC (SEQ ID NO: 1; GFE-1), CGFELETC (SEQ ID NO: 2; GFE-2), CTLRDRNC (SEQ ID NO: 15) and CIGEVEVC (SEQ ID NO: 16) are enriched in lung at 35×, 9×, 6× and 5×, respectively, over unselected phage (see FIG. 2).
# ovary = assay: in vivo panning of X7 library, ovary; set-up: species or system mice; settings: for ovary/brain enrichment ratio: OVARY section, ovary as compared to brain; for % OF MOTIF AMONG ALL CLONES: OVARY, of 40 clones sequenced; for enrichment in ovary as compared to brain: mouse, in vivo
# Experimental: as §1
# Also provided are ovary homing peptides such as RVGLVAR (SEQ ID NO: 11) and EVRSRLS (SEQ ID NO: 10), which were identified by injection of an X7 (SEQ ID NO: 29) library into mice (Table 8). The peptides were isolated by the regular method.
# as §2, §3
# retina = assay: in vivo homing of phage displaying peptides to retina, coinjected with control phage fdAMPLAY88; set-up: species or system rats; settings: for enrichment in retina: injected individually with control fdAMPLAY88 phage; for enrichment in retina compared to control fdAMPLAY88 phage: rat, in vivo
# Experimental: For in vivo panning of retina, two month old female Simonson Albino rats were used to provide larger tissue samples than mice. The rats were anesthetized with phenobarbital (50 mg/kg body weight), and, while under deep anesthesia, the abdominal cavity of the rats was opened and 10^10 TU of a phage library was injected into the left ventricle of the heart through the diaphragm. After 2-5 minutes of phage circulation, the eyes were removed, then washed once in 70% EtOH and once in PBS. The anterior chamber, with cornea and lens, was removed and the retina was peeled from the remaining posterior chamber. The tissue was weighed, homogenized with a syringe bulb in 1 ml of ice cold DMEM containing protease inhibitors (1 mM PMSF, 20 μg/ml aprotinin and 1 μg/ml of leupeptin; all from SIGMA; St. Louis Mo.). The tissue was washed 3 times with 1 ml of DMEM and the phage were rescued as described below.
# as §3
# Rats injected with a cyclic CX7C (SEQ ID NO: 24) phage display library were subjected to in vivo panning and, after three rounds, the peptide sequences CSCFRDVCC (SEQ ID NO: 5) and CRDVVSVIC (SEQ ID NO: 6) were identified in retina. Because of small tissue sample size, the phage isolated could not be accurately quantitated. Thus, the selectivity of phage displaying the peptides was determined by individually amplifying the phage displaying the sequence and administering the phage to rats with a control phage fdAMPLAY88. This fd-ampicillin phage is similar to fd-tetracycline (fuse 5-based) in that it has the same infectivity.
# Rats were injected with an equal amount of the CSCFRDVCC (SEQ ID NO: 5) or CRDVVSVIC (SEQ ID NO: 6) and the fdAMPLAY88 phage. Following administration, homing to retina was evaluated by comparing the number of TU of the selected phage on tetracycline plates and fdAMPLAY88 on ampicillin plates recovered from retina.
substance,measurement,setting,value
RGRWLAL [peptide from phage recovered from prostate],% OF MOTIF AMONG ALL CLONES,prostate,6%
GISALVLS,% OF MOTIF AMONG ALL CLONES,gut,11%
LRVMSFTSGQ [peptide from phage recovered from skin],% of recovered CX10C phage that homed to head skin,skin; head skin,14%
CKWSRLHSC [peptide from phage recovered from lung],% OF MOTIF AMONG ALL CLONES,lung,11%
same,LUNG/BRAIN RATIO,lung,3
CIGEVEVC [peptide from phage recovered from lung],% OF MOTIF AMONG ALL CLONES,lung,5%
same,LUNG/BRAIN RATIO,lung,6
same,enriched in lung over unselected phage,lung,5 ×
same,enrichment in lung as compared to unselected phage,lung,6 fold
YSGKWGK [gut homing peptide],gut/brain enrichment ratio,gut,30
same,% OF MOTIF AMONG ALL CLONES,gut,22%
same,enriched in gut as compared to brain,"gut; mouse, in vivo",30 fold
EVRSRLS [peptide from phage recovered from ovary],ovary/brain enrichment ratio,ovary,3
same,% OF MOTIF AMONG ALL CLONES,ovary,22%
same,enrichment in ovary as compared to brain,ovary,3 fold
CLAKENVVC [peptide from phage recovered from lung],% OF MOTIF AMONG ALL CLONES,lung,13%
same,LUNG/BRAIN RATIO,lung,2
CSSGCSKNCLEMC [peptide from phage recovered from skin],skin/brain phage ratio,skin; SKIN section,2
CWRGDRKIC [peptide from phage recovered from lung],% OF MOTIF AMONG ALL CLONES,lung,8%
same,LUNG/BRAIN RATIO,lung,2
VSFLEYR [peptide from phage recovered from prostate],% OF MOTIF AMONG ALL CLONES,prostate,6%
same,prostate/brain homing ratio,prostate,17
same,enrichment in homing to prostate as compared to brain,prostate,17 fold
CTLRDRNC [lung homing peptide],% OF MOTIF AMONG ALL CLONES,lung,10%
same,LUNG/BRAIN RATIO,lung,8
same,enriched in lung over unselected phage,lung,6 ×
same,enrichment in lung as compared to unselected phage,lung,8 fold
CSCFRDVCC [retina homing peptide],enrichment in retina,retina,3 fold
same,enrichment in retina compared to control fdAMPLAY88 phage,retina,3 ×
RFSVGSLFGS [peptide from phage recovered from skin],% of recovered CX10C phage that homed to head skin,skin; head skin,14%
CTVNEAYKTRMC [peptide from phage recovered from lung],% OF MOTIF AMONG ALL CLONES,lung,22%
same,LUNG/BRAIN RATIO,lung,3
CGKRYRNC,% OF MOTIF AMONG ALL CLONES,lung,5%
same,LUNG/BRAIN RATIO,lung,5
SRRQPLS [peptide from phage recovered from gut],gut/brain enrichment ratio,gut,2
same,% OF MOTIF AMONG ALL CLONES,gut,11%
CERVVGSSC [peptide from phage recovered from lung],% OF MOTIF AMONG ALL CLONES,lung,9%
same,LUNG/BRAIN RATIO,lung,4
CRPWHNQAHTEC [peptide from phage recovered from lung],% OF MOTIF AMONG ALL CLONES,lung,14%
same,LUNG/BRAIN RATIO,lung,5
SMSIARL [peptide from phage recovered from prostate],% OF MOTIF AMONG ALL CLONES,prostate,6%
same,prostate/brain homing ratio,prostate,34
same,enrichment in homing to prostate as compared to brain,prostate,34 fold
RVPLSGDVEH [peptide from phage recovered from skin],% of recovered CX10C phage that homed to head skin,skin; head skin,14%
MSPQLAT [peptide from phage recovered from gut],% OF MOTIF AMONG ALL CLONES,gut,11%
CVDVCCDGCPVCC [peptide from phage recovered from skin],% of recovered CX3CX3CX3C phage that homed to head skin,skin; head skin,14%
CRDVVSVIC [retina homing peptide],enrichment in retina,retina,2 fold
same,enrichment in retina compared to control fdAMPLAY88 phage,retina,2 ×
CRLRSYGTLSLC [peptide from phage recovered from lung],% OF MOTIF AMONG ALL CLONES,lung,5%
same,LUNG/BRAIN RATIO,lung,0.4
CLRPYLNC [peptide from phage recovered from lung],% OF MOTIF AMONG ALL CLONES,lung,10%
same,LUNG/BRAIN RATIO,lung,6
CGATCEMQCPSGC [peptide from phage recovered from skin],"% of recovered CX3CX3CX3C phage, homing to tail skin",skin; tail skin,12%
RVGLVAR [peptide from phage recovered from ovary],ovary/brain enrichment ratio,ovary,5
same,% OF MOTIF AMONG ALL CLONES,ovary,22%
same,enrichment in ovary as compared to brain,ovary,5 fold

# From US6784153B1, “Methods of homing molecules to lung using membrane dipeptidase” (The Burnham Institute, priority 1998, dated 2004)
